Test results taken from patent US6387921B1 (dated 2002).

With `CC1(C)[C@H]2Cc3c(N)cccc3[C@]1(C)CCN2CCOCc1c(F)cccc1F.Cl.Cl` the melting point was 270 °C.
